Patent US9040261B2, “Compounds as L-cystine crystallization inhibitors and uses thereof” (NEW YORK UNIVERSITY, priority 2009, dated 2015)
Structures can show the parent of a compound that is named as a salt.

Tests used:
[1] = Bulk crystallization of L-cystine in the presence of additives (mass yield); conditions: 2 mg/L additive, 0.7 g/L L-cystine (pH 6.8); no additive 80; approximate error ±8%
Procedure: Alternately, the hexagonal crystals can be obtained by crystallization performed near neutral pH (Sa) The hexagonal form was crystallized from a supersaturated L-cystine solution prepared by adding 70 mg of L-cystine to 100 mL of deionized water (3 mM), and heating under reflux at 100° C. for 20 min with stirring to completely dissolve L-cystine. […] This concentration was used for bulk crystallization studies in the presence of additives so that a measurable amount of bulk crystals could be obtained in a reasonable time. The solution was then allowed to cool slowly with stirring for 75 min. 30 mL aliquots were transferred to separate glass containers, which were then sealed to prevent evaporation and exposure to airborne particulates and stored for 72 hours at room temperature without stirring. […] The crystals retrieved in this manner were used for AFM studies by mounting individual crystals according to the procedure described below.
Various proteins, poly-amino acids, and molecular mimics of L-cystine were examined as additives. The aforementioned procedure for hexagonal platelet crystallization was repeated. Following the 75 min cooling period, prior to any observable crystallization, the additive was added to the supersaturated L-cystine solution to the desired concentration. […] Crystallization without additive was performed in an identical manner for comparison using a control solution from the same batch. The mass yields of L-cystine crystals were obtained by dividing the mass of L-cystine crystals (collected from growth solution by filtration) by the mass of L-cystine added in the growth solution.
Additives chosen for these studies were various proteins, poly-amino acids, and molecular mimics of L-cystine (see Table 1). The above procedure for hexagonal platelet crystallization was repeated until completion of the 75 min cooling period, at which point 29.5 g of solution was transferred to a 100 mL beaker containing 0.5 g of separately prepared additive solution to yield net concentrations of 2 mg/L additive and 0.7 g/L L-cystine. Additive solutions were replaced with deionized water of equivalent volume for control measurements. […]
L-cystine bulk crystallization was investigated in the presence of various polymers, urinary constituents, fish antifreeze proteins (AFPs), and L-cystine derivatives (i.e. structural mimics of L-cystine), which were analyzed as possible growth inhibitors of hexagonal L-cystine. The potency of each additive was assessed by comparing the difference in crystal yield (Table 1), which is equal to the mass of crystals formed in the presence of 2 mg/L additive (isolated with […]) divided by the total mass of L-cystine (700 mg/L).

[2] = Real time in situ AFM step velocity measurements, static conditions; conditions: 5 g/L cystamine
Procedure: A Digital Instruments (Santa Barbara, Calif.) Nanoscope IIIa Multimode system was used for topographical and lattice imaging. All measurements were performed in contact mode using Veeco NP_B Si3N4 cantilever tips with a spring constant of 0.12N/m (triangular, 196 μm length, 41 μm width) on a glass cantilever holder, and a liquid cell was created for in situ step velocity measurements. All L-cystine crystals for AFM measurements were prepared by method 1. Crystals were transferred onto an AFM specimen disk coated with partially cured (1 hr) UV-curable optical cement (Type SK-9, EMS Acquisition Corp.) by gently pressing the disk against hexagonal platelets or L-cystine needles isolated by filtration (Whatman Nuclepore membrane, 8 μm). The (0001) face of hexagonal platelets was exposed normal to the disk for AFM analysis with growth occurring along equivalent {1010} faces in the lateral directions, while the sides of L-cystine needles were exposed normal to the disc. The partially cured polymer with adhered crystals was completely cured by additional UV radiation (2 hrs) prior to analysis. Measurements of individual step heights for hexagonal L-cystine crystals were acquired in air (contact mode) at a scan rate of 1.00 Hz and 256 samples per line over a 15×15 μm^2 surface area. Integral and proportional gains were set to the highest possible values without obtaining feedback. Four hexagonal crystals (5 areas per crystal) were analyzed for statistical step height distributions, which were calculated from >10^3 individual steps. Lattice-resolved images of crystal surfaces were acquired in water (contact mode) using a scan rate of 112 Hz over a 12×12 nm^2 area.
Real time in situ step velocity measurements of L-cystine growth were assessed along six structurally-equivalent {1010} faces of the hexagonal structure. A liquid cell was created with the glass cantilever tip holder, and working solutions were injected through a 1-mL syringe. Prior to injecting the growth medium (i.e. supersaturated L-cystine solution), crystals were etched with deionized water in the fluid cell for one hour to remove amorphous deposits or impurities that may be present on the surface. Supersaturated solutions (0.5 g/L) were generated by adding L-cystine to deionized water, boiling the solution on a heating mantle for 20 min to completely dissolve the solute, and allowing the solution to cool for 20 min on the heating mantle before transferring the solution (via syringe) to the AFM fluid cell. […]
The effect of additives on crystal growth rates was investigated. […] For each measurement, growth was first assessed in the absence of additive, then in the presence of additive on the identical area of the crystal surface to analyze relative changes in step velocity. […]

[3] = pH 7, 25° C.; cited from earlier work

SMILES | Yield (%) = (collected mass by filtration, >11 μm)/(total mass added) × 100% [1] [%] | reduction of step velocity relative to the control [2] [%] | Step velocity ([2]; 0.5 g/L L-cystine, 25° C., static, without additive ~29 nm/min, independent of step height) [nm/min] | solubility of L-cystine in water [3] [µM]
NCCSSCCN [Cystamine, cystamine dihydrochloride, reference compound] | 30 | 36 | 18 ± 3 | –
N[C@@H](CSSC[C@H](N)C(=O)O)C(=O)O [L-cystine] | – | – | – | 400 to 700
